# Measured values published in publication PMC9503946 (Pharmaceuticals, 2022).
# “And” between values parts separate entries of the source, which are not always exact repeats. Equal entries are not always repeated.
# Assays:
# [1] = in vitro; settings: human
# [2] = target: recombinant SARS-CoV-1 nucleocapsid protein (Severe acute respiratory syndrome coronavirus, UniProt P59595); experiment: biochemical; assay type: binding
# [3] = test system: MRC-5 cells; settings: 72 h; 0.003-100 µM
# [4] = target: recombinant SARS-CoV-2 nucleocapsid protein (full-length NP, aa 1–419) (Severe acute respiratory syndrome coronavirus 2, UniProt P0DTC9); experiment: biochemical; assay type: binding
# [5] = test system: A549 cells; settings: 72 h; 0.003-100 µM
# recombinant SARS-CoV-1 nucleocapsid protein, sequence (P59595 whole entry, looked up): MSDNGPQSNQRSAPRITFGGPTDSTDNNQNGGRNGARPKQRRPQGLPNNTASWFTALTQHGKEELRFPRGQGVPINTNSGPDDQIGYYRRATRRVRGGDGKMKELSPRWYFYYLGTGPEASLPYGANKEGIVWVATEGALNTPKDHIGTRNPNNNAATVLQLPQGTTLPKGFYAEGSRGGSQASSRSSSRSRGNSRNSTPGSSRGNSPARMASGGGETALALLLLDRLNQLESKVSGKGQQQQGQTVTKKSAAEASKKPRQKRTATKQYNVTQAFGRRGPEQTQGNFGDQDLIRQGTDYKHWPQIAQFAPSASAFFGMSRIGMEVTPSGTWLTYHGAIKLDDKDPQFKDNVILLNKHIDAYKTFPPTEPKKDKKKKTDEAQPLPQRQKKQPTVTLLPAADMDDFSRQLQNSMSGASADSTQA
SMILES,IC50 [1] [µM],Kd [2],IC50 (cytotoxicity) [3],Kd [4] [µM],IC50 (cytotoxicity) [5]
"Cc1ccc2ccccc2c1COc1ccc2c(C)c(CC(=O)N3CCC4(O)CCCCC4C3)c(=O)oc2c1C (stereo not drawn) [Compound 1, 3-[2-(4a-hydroxy-decahydroisoquinolin-2-yl)-2-oxoethyl]-4,8-dimethyl-7-[(2-methylnaphthalen-1-yl)methoxy]-2H-chromen-2-one]",51 ± 8.13,14.6 ± 0.44 µM,no toxicity,,
"Cc1c(CC(=O)N2CCC3(O)CCCCC3C2)c(=O)oc2cc3occ(-c4ccc5ccccc5c4)c3cc12 (stereo not drawn) [Compound 2, 6-[2-(4a-hydroxy-decahydroisoquinolin-2-yl)-2-oxoethyl]-5-methyl-3-(naphthalen-2-yl)-7H-furo [3,2-g]chromen-7-one]",,,,22.8 ± 1.52,
"Cc1c(CC(=O)N2CCC3(O)CCCCC3C2)c(=O)oc2c(C)c3occ(-c4ccc5ccccc5c4)c3cc12 (stereo not drawn) [Compound 4, 6-[2-(4a-hydroxy-decahydroisoquinolin-2-yl)-2-oxoethyl]-5,9-dimethyl-3-(naphthalen-2-yl)-7H-furo[3,2-g]chromen-7-one]",,0.674 µM and < 1 µM,,,no toxicity
